The assay has as its target T1, VirB (VirB-His6) (Shigella flexneri, UniProt P0A247).
T1 construct: VirB with His6 tag, purified by Monserate Biotechnology Group by an earlier protocol; ParB superfamily protein encoded on the large virulence plasmid pINV; homodimer on DNA
The assay is described as follows: isothermal titration calorimetry. In kind it is binding. As to conditions: 25 °C, pH 7.6, 25 mM HEPES, 100 mM NaCl, one set of sites. In general terms: In ITC the heat of successive injections is recorded.

In general, Kd refers to the concentration at which binding is half-saturated. A low value points to higher affinity.

T1 sequence (P0A247 whole entry): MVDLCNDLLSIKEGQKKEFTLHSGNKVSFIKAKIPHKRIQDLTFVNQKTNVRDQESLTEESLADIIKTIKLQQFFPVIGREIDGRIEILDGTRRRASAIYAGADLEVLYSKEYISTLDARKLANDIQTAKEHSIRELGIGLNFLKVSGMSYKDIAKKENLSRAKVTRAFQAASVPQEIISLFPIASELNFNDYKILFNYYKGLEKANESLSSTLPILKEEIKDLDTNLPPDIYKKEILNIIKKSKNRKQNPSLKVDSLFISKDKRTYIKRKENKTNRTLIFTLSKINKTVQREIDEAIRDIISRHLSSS

Compound `Nc1ccn([C@@H]2O[C@H](COP(=O)(O)OP(=O)(O)OP(=O)(O)O)[C@@H](O)[C@H]2O)c(=O)n1` [CTP] displayed a Kd (5 mM MgCl2, 45 µM VirB-His6, no DNA) of 9.3 ± 0.4 µM.
`Nc1ccn([C@@H]2O[C@H](COP(=O)(O)OP(=O)(O)OP(O)(O)=S)[C@@H](O)[C@H]2O)c(=O)n1` [CTPγS] gave a Kd (5 mM MgCl2, 90 µM VirB-His6 (not fully saturated after 13 injections), no DNA) of 14.3 ± 0.5 µM.
